According to publication PMC6199744, “Development of Chemical Proteomics for the Folateome and Analysis of the Kinetoplastid Folateome” (ACS Infectious Diseases, 2018):

Experiments:
[1] = tested on: MTHF complex (DHCH protein in humans); experiment: Multitargeted bead mixture competition, HeLa cell extract; type: binding, human; settings: bead mixture; HeLa cell extract
TbDHFR = settings: direct enzyme assays; cited from earlier work
TbTS = settings: direct enzyme assays; read-out: TbTS Ki; cited from earlier work
DHFR-TS = DHFR-TS (Trypanosoma brucei brucei, UniProt Q27783); experiment: Individual bead pull down with competing free ligand; settings: competing free ligand 100 μM; bead = immobilized compound of the row; T. brucei lysate; read-out: % Inhibition of protein binding to bead, DHFR-TS, T. brucei
Sequence of DHFR-TS (Q27783 whole entry): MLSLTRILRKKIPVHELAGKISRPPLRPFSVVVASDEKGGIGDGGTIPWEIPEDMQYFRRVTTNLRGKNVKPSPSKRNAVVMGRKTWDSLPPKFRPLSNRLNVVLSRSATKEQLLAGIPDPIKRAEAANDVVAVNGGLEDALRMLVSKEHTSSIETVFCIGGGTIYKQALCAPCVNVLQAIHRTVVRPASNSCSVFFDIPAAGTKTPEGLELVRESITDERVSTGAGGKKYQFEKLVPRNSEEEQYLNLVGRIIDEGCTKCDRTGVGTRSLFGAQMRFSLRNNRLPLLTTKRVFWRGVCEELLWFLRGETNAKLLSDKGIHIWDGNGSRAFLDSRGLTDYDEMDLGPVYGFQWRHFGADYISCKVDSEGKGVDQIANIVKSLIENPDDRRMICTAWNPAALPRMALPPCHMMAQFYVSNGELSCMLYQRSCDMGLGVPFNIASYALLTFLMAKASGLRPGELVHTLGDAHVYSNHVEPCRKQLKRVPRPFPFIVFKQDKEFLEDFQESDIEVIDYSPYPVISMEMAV
Excerpt: (§1) Antifolate compounds were immobilized onto NHS-activated sepharose beads/reverse sepharose beads through amide coupling via either an amino or carboxyl group (see Figure 3). The reaction was monitored by observing the disappearance of test compound by LCMS, after which the unreacted coupling sites were capped with NHS-acetate or aminoethanol.
(§2) Folate metabolizing enzymes are not highly abundant proteins,[19],[20] potentially making their identification by MS difficult. Beads will not only pull down the low abundant high affinity binders but also attract highly abundant, low affinity binders or so-called nonspecific binders. Sometimes, the nonspecific high abundant proteins can mask true binders. The target identification approach used in this study overcomes this issue by performing competition studies. Various concentrations of the free unmodified inhibitor (test compound) were preincubated with the lysate, prior to addition of the beads derivatized with immobilized compounds. Following washing of the bound proteins from the beads and tryptic digest, the peptides were labeled using the TMTs and then pooled. Differences in peptide abundance were analyzed by fragmentation of the isotope-coded isobaric tags in the MS/MS spectra (Figure 5).[9],[11],[12],[21] While the competition experiments with test compound confirm specific binding, it is also possible that some proteins will have a stronger binding interaction with the derivatized beads than the competing test compound, due to subtle differences in the interactions between the immobilized compound and the test compound with the target protein.

PTR-1 = PTR-1 (Trypanosoma brucei brucei, UniProt O76290); experiment: as above; settings: competing free ligand 100 μM; bead = immobilized compound of the row; T. brucei lysate; read-out: % Inhibition of protein binding to bead, PTR-1, T. brucei
Sequence of PTR-1 (O76290 entry or part of it): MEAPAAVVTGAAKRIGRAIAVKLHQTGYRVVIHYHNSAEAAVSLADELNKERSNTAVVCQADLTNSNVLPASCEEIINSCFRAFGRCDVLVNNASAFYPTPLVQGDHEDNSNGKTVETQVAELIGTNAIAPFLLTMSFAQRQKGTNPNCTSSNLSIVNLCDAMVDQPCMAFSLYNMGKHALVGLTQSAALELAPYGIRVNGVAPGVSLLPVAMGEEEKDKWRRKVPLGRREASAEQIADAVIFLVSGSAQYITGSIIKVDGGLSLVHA
Excerpt: as §1, §2

[2] = tested on: HYPOTHETICAL PROTEIN, CONSERVED (TB427.05.3680); experiment: Multitargeted bead mixture competition; type: binding; settings: free ligand 100 μM, T. brucei lysate
TB427.04.1870 = experiment: Multitargeted bead mixture competition; type: binding; settings: free ligand 100 μM, T. brucei lysate
TB927.7.1340 = experiment: Multitargeted bead mixture competition; type: binding; settings: free ligand 100 μM, T. brucei lysate
[3] = tested on: HYPOTHETICAL PROTEIN, CONSERVED (TB427.03.2670); experiment: Multitargeted bead mixture competition; type: binding; settings: free ligand 100 μM, T. brucei lysate
[4] = tested on: PEPTIDYL-PROLYL CIS-TRANS ISOMERASE (CYCLOPHILIN- (TB427TMP.211.1350)); experiment: Multitargeted bead mixture competition; type: binding; settings: free ligand 100 μM, T. brucei lysate
[5] = tested on: BRANCHED-CHAIN AMINO ACID AMINOTRANSFERASE, PUTATI (TB427.02.4590); experiment: Multitargeted bead mixture competition; type: binding; settings: free ligand 100 μM, T. brucei lysate
[6] = tested on: ACETYLTRANSFERASE, PUTATIVE (Tb427.08.3310); experiment: Multitargeted bead mixture competition; type: binding; settings: free ligand 100 μM, T. brucei lysate
[7] = tested on: HYPOTHETICAL PROTEIN, CONSERVED (Tb427.10.6100); experiment: Multitargeted bead mixture competition; type: binding; settings: free ligand 100 μM, T. brucei lysate
[8] = tested on: PROTEIN KINASE, PUTATIVE (Tb427.03.1570); experiment: Multitargeted bead mixture competition; type: binding; settings: free ligand 100 μM, T. brucei lysate
T. brucei = tested on: T. brucei; parameters: method as in ref 5 (SI); settings: ref 5 (SI); read-out: EC50 against T. brucei, in vitro cell growth; cited from earlier work

CCCCCCOc1ccc(Cc2cnc(N)nc2N)cc1 [compound 1]
inhibition, all subunits of the MTHF complex [1]: > 70%

Nc1nc2[nH]cc(CCc3ccc(C(=O)N[C@@H](CCC(=O)O)C(=O)O)cc3)c2c(=O)[nH]1 [PTX, pemetrexed]
Ki (TbDHFR): 0.29 ± 0.02 µM
Ki (TbTS): 20.5 µM

Nc1nc2cccc(-c3ccccc3)c2n1Cc1ccc(Cl)c(Cl)c1 [compound 3]
inhibition at 100 µM (DHFR-TS): < 50%
inhibition at 100 µM (PTR-1): < 50%
percentage of competition from bead binding [2]: 68%
percentage of competition from bead binding (TB427.04.1870): 47%
percentage of competition from bead binding (TB927.7.1340): 40%
percentage of competition from bead binding [3]: 62%
percentage of competition from bead binding [4]: 38%
percentage of competition from bead binding [5]: 51%
percentage of competition from bead binding [6]: 37%
percentage of competition from bead binding [7]: 67%
percentage of competition from bead binding [8]: -2%
EC50 (T. brucei): 10 µM
